Assay: xn = mol fraction of the nth substance listed

CC1CCC(=O)O1 (stereo not given) [γ-valerolactone] + O=C=O
Fluid (supercritical or subcritical phases), Pycnometric method
Conditions | mass density [kg/m3]
313.2 K, 10860 kPa, x1 = 0.1 | 942
313.2 K, 10880 kPa, x1 = 0.025 | 833
313.2 K, 11030 kPa, x1 = 0.01 | 778
313.2 K, 11160 kPa, x1 = 0.025 | 840
313.2 K, 11200 kPa, x1 = 0.05 | 872
313.2 K, 11230 kPa, x1 = 0.15 | 981
313.2 K, 11440 kPa, x1 = 0.01 | 789
313.2 K, 11450 kPa, x1 = 0.025 | 846
313.2 K, 11640 kPa, x1 = 0.1 | 949
313.2 K, 11660 kPa, x1 = 0.05 | 878
313.2 K, 11770 kPa, x1 = 0.025 | 852
313.2 K, 11850 kPa, x1 = 0.15 | 985
313.2 K, 11950 kPa, x1 = 0.01 | 802
313.2 K, 12460 kPa, x1 = 0.15 | 987
313.2 K, 12490 kPa, x1 = 0.1 | 956
313.2 K, 13220 kPa, x1 = 0.15 | 992
313.2 K, 13510 kPa, x1 = 0.1 | 964
313.2 K, 13960 kPa, x1 = 0.15 | 995
313.2 K, 14650 kPa, x1 = 0.15 | 999
313.2 K, 15420 kPa, x1 = 0.15 | 1002
313.2 K, 16160 kPa, x1 = 0.15 | 1006
313.2 K, 16920 kPa, x1 = 0.15 | 1009
316.2 K, 8740 kPa, x1 = 0.025 | 683
316.2 K, 8760 kPa, x1 = 0.025 | 687
316.2 K, 8790 kPa, x1 = 0.025 | 692
316.2 K, 8810 kPa, x1 = 0.025 | 696
316.2 K, 8830 kPa, x1 = 0.025 | 700
316.2 K, 8880 kPa, x1 = 0.025 | 704
316.2 K, 8910 kPa, x1 = 0.025 | 709
316.2 K, 8960 kPa, x1 = 0.025 | 713
316.2 K, 8990 kPa, x1 = 0.025 | 718
316.2 K, 9060 kPa, x1 = 0.025 | 723
316.2 K, 9110 kPa, x1 = 0.025 | 728
316.2 K, 9180 kPa, x1 = 0.025 | 732
316.2 K, 9250 kPa, x1 = 0.025 | 737
316.2 K, 9320 kPa, x1 = 0.025 | 742
316.2 K, 9410 kPa, x1 = 0.025 | 747
316.2 K, 9500 kPa, x1 = 0.025 | 752
316.2 K, 9590 kPa, x1 = 0.025 | 758
316.2 K, 9700 kPa, x1 = 0.025 | 762
316.2 K, 9800 kPa, x1 = 0.025 | 768
316.2 K, 9930 kPa, x1 = 0.025 | 772
316.2 K, 10060 kPa, x1 = 0.025 | 778
316.2 K, 10210 kPa, x1 = 0.025 | 783
316.2 K, 10360 kPa, x1 = 0.025 | 788
316.2 K, 10520 kPa, x1 = 0.025 | 794
316.2 K, 10720 kPa, x1 = 0.025 | 800
316.2 K, 10910 kPa, x1 = 0.025 | 806
316.2 K, 11110 kPa, x1 = 0.025 | 812
316.2 K, 11350 kPa, x1 = 0.025 | 818
316.2 K, 11610 kPa, x1 = 0.025 | 824
316.2 K, 11880 kPa, x1 = 0.025 | 830
316.2 K, 12200 kPa, x1 = 0.025 | 836
316.2 K, 12480 kPa, x1 = 0.025 | 842
318 K, 9060 kPa, x1 = 0.01 | 519
318 K, 9080 kPa, x1 = 0.01 | 522
318 K, 9090 kPa, x1 = 0.01 | 525
318 K, 9110 kPa, x1 = 0.01 | 529
318 K, 9120 kPa, x1 = 0.01 | 532
318 K, 9140 kPa, x1 = 0.01 | 535
318 K, 9180 kPa, x1 = 0.01 | 542
318 K, 9180 kPa, x1 = 0.15 | 949
318 K, 9190 kPa, x1 = 0.025 | 680
318 K, 9220 kPa, x1 = 0.01 | 549
318 K, 9230 kPa, x1 = 0.025 | 683
318 K, 9250 kPa, x1 = 0.01 | 556
318 K, 9260 kPa, x1 = 0.025 | 688
318 K, 9270 kPa, x1 = 0.05 | 776
318 K, 9290 kPa, x1 = 0.01 | 563
318 K, 9290 kPa, x1 = 0.025 | 692
318 K, 9330 kPa, x1 = 0.01 | 570
318 K, 9330 kPa, x1 = 0.05 | 782
318 K, 9340 kPa, x1 = 0.025 | 696
318 K, 9380 kPa, x1 = 0.01 | 578
318 K, 9380 kPa, x1 = 0.025 | 700
318 K, 9410 kPa, x1 = 0.05 | 787
318 K, 9410 kPa, x1 = 0.1 | 894
318 K, 9430 kPa, x1 = 0.01 | 586
318 K, 9430 kPa, x1 = 0.025 | 705
318 K, 9480 kPa, x1 = 0.01 | 593
318 K, 9480 kPa, x1 = 0.025 | 709
318 K, 9480 kPa, x1 = 0.05 | 792
318 K, 9490 kPa, x1 = 0.15 | 952
318 K, 9530 kPa, x1 = 0.025 | 714
318 K, 9540 kPa, x1 = 0.01 | 602
318 K, 9540 kPa, x1 = 0.1 | 896
318 K, 9590 kPa, x1 = 0.025 | 718
318 K, 9600 kPa, x1 = 0.05 | 797
318 K, 9610 kPa, x1 = 0.01 | 611
318 K, 9660 kPa, x1 = 0.025 | 723
318 K, 9690 kPa, x1 = 0.01 | 619
318 K, 9730 kPa, x1 = 0.025 | 728
318 K, 9730 kPa, x1 = 0.1 | 900
318 K, 9760 kPa, x1 = 0.05 | 803
318 K, 9800 kPa, x1 = 0.01 | 631
318 K, 9800 kPa, x1 = 0.025 | 732
318 K, 9860 kPa, x1 = 0.025 | 737
318 K, 9880 kPa, x1 = 0.1 | 903
318 K, 9930 kPa, x1 = 0.01 | 642
318 K, 9940 kPa, x1 = 0.05 | 809
318 K, 9940 kPa, x1 = 0.15 | 956
318 K, 9950 kPa, x1 = 0.025 | 742
318 K, 10020 kPa, x1 = 0.01 | 652
318 K, 10050 kPa, x1 = 0.025 | 747
318 K, 10080 kPa, x1 = 0.01 | 657
318 K, 10130 kPa, x1 = 0.05 | 814
318 K, 10140 kPa, x1 = 0.1 | 906
318 K, 10150 kPa, x1 = 0.025 | 752
318 K, 10260 kPa, x1 = 0.025 | 757
318 K, 10320 kPa, x1 = 0.15 | 959
318 K, 10340 kPa, x1 = 0.05 | 820
318 K, 10340 kPa, x1 = 0.1 | 909
318 K, 10380 kPa, x1 = 0.025 | 762
318 K, 10500 kPa, x1 = 0.025 | 768
318 K, 10600 kPa, x1 = 0.05 | 825
318 K, 10610 kPa, x1 = 0.1 | 912
318 K, 10640 kPa, x1 = 0.025 | 773
318 K, 10750 kPa, x1 = 0.01 | 695
318 K, 10800 kPa, x1 = 0.025 | 779
318 K, 10850 kPa, x1 = 0.1 | 916
318 K, 10870 kPa, x1 = 0.05 | 832
318 K, 10920 kPa, x1 = 0.15 | 962
318 K, 10960 kPa, x1 = 0.025 | 784
318 K, 11040 kPa, x1 = 0.01 | 711
318 K, 11120 kPa, x1 = 0.025 | 789
318 K, 11140 kPa, x1 = 0.1 | 919
318 K, 11160 kPa, x1 = 0.05 | 838
318 K, 11320 kPa, x1 = 0.025 | 795
318 K, 11440 kPa, x1 = 0.1 | 922
318 K, 11470 kPa, x1 = 0.05 | 843
318 K, 11480 kPa, x1 = 0.15 | 966
318 K, 11520 kPa, x1 = 0.025 | 801
318 K, 11740 kPa, x1 = 0.025 | 806
318 K, 11750 kPa, x1 = 0.1 | 925
318 K, 11860 kPa, x1 = 0.05 | 850
318 K, 11950 kPa, x1 = 0.025 | 813
318 K, 11960 kPa, x1 = 0.15 | 969
318 K, 12090 kPa, x1 = 0.1 | 928
318 K, 12210 kPa, x1 = 0.025 | 818
318 K, 12240 kPa, x1 = 0.05 | 857
318 K, 12490 kPa, x1 = 0.025 | 824
318 K, 12600 kPa, x1 = 0.15 | 972
318 K, 12670 kPa, x1 = 0.05 | 862
318 K, 12770 kPa, x1 = 0.025 | 830
318 K, 12780 kPa, x1 = 0.1 | 935
318 K, 13080 kPa, x1 = 0.025 | 836
318 K, 13090 kPa, x1 = 0.15 | 975
318 K, 13150 kPa, x1 = 0.05 | 869
318 K, 13490 kPa, x1 = 0.025 | 843
318 K, 13580 kPa, x1 = 0.1 | 943
318 K, 13710 kPa, x1 = 0.15 | 978
318 K, 13740 kPa, x1 = 0.025 | 849
318 K, 13850 kPa, x1 = 0.05 | 878
318 K, 13990 kPa, x1 = 0.1 | 945
318 K, 14310 kPa, x1 = 0.15 | 982
318 K, 14380 kPa, x1 = 0.1 | 949
318 K, 15060 kPa, x1 = 0.15 | 986
318 K, 15680 kPa, x1 = 0.15 | 989
318 K, 16350 kPa, x1 = 0.15 | 992
318 K, 16950 kPa, x1 = 0.15 | 995
322.9 K, 9850 kPa, x1 = 0.01 | 518

mass density [kg/m3], high pressure variable cell
Conditions | x1 = 0.01 | x1 = 0.025 | x1 = 0.05 | x1 = 0.1 | x1 = 0.15
313.2 K, Liquid | 539 | 723 | 803 | 910 | 961
318 K, Gas | 516 | 677 | – | – | –
318 K, Liquid | – | – | – | 891 | 948

— the NIST ThermoML archive (doi:10.1021/je8007759)
